Results from patent US5157052A, “Method for inhibiting IgE production” (priority 1990, dated 1992).

Test system: IgE
Assay: Serum IgE response induced by FF1-4D5 + H∂A1 anti-IgD antibodies (ELISA, Assay A / Assay F)
Type: in vivo, mouse (Balb/c female)
How it was run: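 Transient IgE response induced in female Balb/c mice (10–20 weeks) by a day-0 i.v. or s.c. injection of 100 μg each of anti-IgD FF1-4D5 and H.δA1. Serum IgE measured by sandwich ELISA (B1E3 capture, biotinylated R1E4 detection, avidin-biotin-HRP/ABTS), quantified against an IgE standard curve corrected for serum dilution.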

[1] = Table 12, 20 μg days 3 and 4, day 8 (control 11398)

SMILES: CCCCC(C)(O)C/C=C/[C@H]1[C@H](O)CC(=O)[C@@H]1C/C=C\CCCC(=O)OC (mixture of isomers) [(±) methyl 11α,16-dihydroxy-16-methyl-9-oxoprosta-5Z,13E-dien-1-oate]
- Serum IgE ± SD (0.5 μg IP 4x daily days 3 and 4, day 7): 7813 ± 588 ng/mL
- Serum IgE ± SD (0.5 μg IP 4x daily days 3 and 4, day 8): 5699 ± 322 ng/mL
- Serum IgE ± SD (0.5 μg IP 4x daily days 3 and 4, day 9): 6097 ± 249 ng/mL
- Serum IgE ± SD (0.5 μg IP 4x daily days 3 and 4, day 11): 2049 ± 1201 ng/mL
- Serum IgE ± SD (0.5 μg IP 4x daily days 3 and 4, day -1 baseline before treatment): 839 ± 44 ng/mL
- Serum IgE ± SD (1.0 μg IP 3x daily days 3 and 4, day 7 (control 8850)): 4974 ± 1232 ng/mL
- Serum IgE ± SD (1.0 μg IP 3x daily days 3 and 4, day 8 (control 7557)): 4595 ± 663 ng/mL
- Serum IgE ± SD (1.0 μg IP 3x daily days 3 and 4, day 9 (control 6458)): 4602 ± 771 ng/mL
- Serum IgE ± SD (1.0 μg IP 3x daily days 3 and 4, day 11 (control 1466)): 1326 ± 241 ng/mL
- Serum IgE ± SD (1.0 μg IP 3x daily days 3 and 4, day -1 baseline before treatment): 808 ± 17 ng/mL
- Serum IgE ± SD (1.0 μg IP 4x daily days 3 and 4, day 7): 5549 ± 1044 ng/mL
- Serum IgE ± SD (1.0 μg IP 4x daily days 3 and 4, day 8): 3051 ± 475 ng/mL
- Serum IgE ± SD (1.0 μg IP 4x daily days 3 and 4, day 9): 4383 ± 832 ng/mL
- Serum IgE ± SD (1.0 μg IP 4x daily days 3 and 4, day 11): 1506 ± 794 ng/mL
- Serum IgE ± SD (1.0 μg IP 4x daily days 3 and 4, day -1 baseline before treatment): 1197 ± 272 ng/mL
- Serum IgE ± SD (2.0 μg IP 3x daily days 3 and 4, day 7): 5598 ± 1875 ng/mL
- Serum IgE ± SD (2.0 μg IP 3x daily days 3 and 4, day 8): 3057 ± 331 ng/mL
- Serum IgE ± SD (2.0 μg IP 3x daily days 3 and 4, day 9): 3644 ± 1179 ng/mL
- Serum IgE ± SD (2.0 μg IP 3x daily days 3 and 4, day 11): 1279 ± 377 ng/mL
- Serum IgE ± SD (2.0 μg IP 3x daily days 3 and 4, day -1 baseline before treatment): 800 ± 10 ng/mL
- Serum IgE ± SD (2.0 μg IP 4x daily days 3 and 4, day 7): 5483 ± 717 ng/mL
- Serum IgE ± SD (2.0 μg IP 4x daily days 3 and 4, day 8): 3236 ± 599 ng/mL
- Mean IgE ± SD (2 μg IP 4x daily days 3 and 4, day 8 (controls 14083-15890)): 5401 ± 883 ng/mL
- Serum IgE ± SD (2.0 μg IP 4x daily days 3 and 4, day 9): 3987 ± 401 ng/mL
- Serum IgE ± SD (2.0 μg IP 4x daily days 3 and 4, day 11): 1925 ± 410 ng/mL
- Mean IgE ± SD (2 μg IP 4x daily days 3 and 4, day -1 baseline before treatment): 1294 ± 232 ng/mL
- Serum IgE ± SD (2.0 μg IP 4x daily days 3 and 4, day -1 baseline before treatment): 1019 ± 206 ng/mL
- reduction in IgE production (2 μg IP, day 8): about 62%
- IgE inhibition regardless of day of administration (5 μg IP): regardless on what day the prostaglandin was administered IgE production (synthesis) was inhibited
- duration of IgE suppression (5 μg IP): IgE production was still suppressed even after 11 days
- optimal day of administration for inhibition of IgE (5 μg IP): IgE production is inhibited optimally when administered on day 3 and 4
- Mean IgE ± SD (5 μg IP 4x daily days 3 and 4, day 8 (controls 14083-15890)): 5076 ± 378 ng/mL
- Mean IgE ± SD (5 μg IP 4x daily days 3 and 4, day -1 baseline before treatment): 1292 ± 185 ng/mL
- Serum IgE ± SD (5 μg IP on days 1,2, day 8 (control 19549)): 9753 ± 4566 ng/mL
- Serum IgE ± SD (5 μg IP on days 1,2, day 9 (control 17498)): 10678 ± 8402 ng/mL
- Serum IgE ± SD (5 μg IP on days 1,2, day 11 (control 5317)): 2355 ± 709 ng/mL
- Serum IgE ± SD (5 μg IP on days 1,2, day -1 baseline before treatment): 1344 ± 135 ng/mL
- Serum IgE ± SD (5 μg IP on days 2,3, day 8 (control 19549)): 6233 ± 1948 ng/mL
- Serum IgE ± SD (5 μg IP on days 2,3, day 9 (control 17498)): 5328 ± 1811 ng/mL
- Serum IgE ± SD (5 μg IP on days 2,3, day 11 (control 5317)): 2139 ± 396 ng/mL
- Serum IgE ± SD (5 μg IP on days 2,3, day -1 baseline before treatment): 1293 ± 88 ng/mL
- Serum IgE ± SD (5 μg IP on days 3,4, day 8 (control 19549)): 4683 ± 1247 ng/mL
- Serum IgE ± SD (5 μg IP on days 3,4, day 9 (control 17498)): 4505 ± 1155 ng/mL
- Serum IgE ± SD (5 μg IP on days 3,4, day 11 (control 5317)): 1865 ± 361 ng/mL
- Serum IgE ± SD (5 μg IP on days 3,4, day -1 baseline before treatment): 1517 ± 166 ng/mL
- Serum IgE ± SD (5 μg IP on days 4,5, day 8 (control 19549)): 7969 ± 1821 ng/mL
- Serum IgE ± SD (5 μg IP on days 4,5, day 9 (control 17498)): 7145 ± 1763 ng/mL
- Serum IgE ± SD (5 μg IP on days 4,5, day 11 (control 5317)): 2316 ± 496 ng/mL
- Serum IgE ± SD (5 μg IP on days 4,5, day -1 baseline before treatment): 1644 ± 560 ng/mL
- Serum IgE ± SD (10.0 μg IP 3x daily days 3 and 4, day 7): 3223 ± 1717 ng/mL
- Serum IgE ± SD (10.0 μg IP 3x daily days 3 and 4, day 8): 1705 ± 859 ng/mL
- Serum IgE ± SD (10.0 μg IP 3x daily days 3 and 4, day 9): 1233 ± 601 ng/mL
- Serum IgE ± SD (10.0 μg IP 3x daily days 3 and 4, day 11): 1116 ± 276 ng/mL
- Serum IgE ± SD (10.0 μg IP 3x daily days 3 and 4, day -1 baseline before treatment): 849 ± 77 ng/mL
- Serum IgE ± SD (10.0 μg IP 4x daily days 3 and 4, day 7): 2092 ± 605 ng/mL
- Serum IgE ± SD (10.0 μg IP 4x daily days 3 and 4, day 8): 1884 ± 598 ng/mL
- Mean IgE ± SD (10 μg IP 4x daily days 3 and 4, day 8 (controls 14083-15890)): 2661 ± 504 ng/mL
- Serum IgE ± SD (10.0 μg IP 4x daily days 3 and 4, day 9): 1991 ± 834 ng/mL
- Serum IgE ± SD (10.0 μg IP 4x daily days 3 and 4, day 11): 1429 ± 361 ng/mL
- Mean IgE ± SD (10 μg IP 4x daily days 3 and 4, day -1 baseline before treatment): 1382 ± 135 ng/mL
- Serum IgE ± SD (10.0 μg IP 4x daily days 3 and 4, day -1 baseline before treatment): 1040 ± 211 ng/mL
- Mean IgE ± SD (20 μg IP 4x daily days 3 and 4, day 8 (controls 14083-15890)): 1608 ± 272 ng/mL
- Mean IgE ± SD (20 μg IP 4x daily days 3 and 4, day -1 baseline before treatment): 1308 ± 204 ng/mL
- inhibition of de novo IgE synthesis in vivo (20 μg days 3 and 4): de nouo IgE synthesis is inhibited
- Serum IgE ± SD (40 μg IP 3x daily days 3 and 4, day 7): 998 ± 146 ng/mL
- Serum IgE ± SD (40 μg IP 3x daily days 3 and 4, day 8): 1214 ± 181 ng/mL
- Serum IgE ± SD (40 μg IP 3x daily days 3 and 4, day 9): 1119 ± 135 ng/mL
- Serum IgE ± SD (40 μg IP 3x daily days 3 and 4, day 11): 1110 ± 249 ng/mL
- Serum IgE ± SD (40 μg IP 3x daily days 3 and 4, day -1 baseline before treatment): 822 ± 39 ng/mL
- Serum IgE ± SD (40.0 μg IP 4x daily days 3 and 4, day 7): 1037 ± 237 ng/mL
- Serum IgE ± SD (40.0 μg IP 4x daily days 3 and 4, day 8): 1152 ± 388 ng/mL
- Mean IgE ± SD (40 μg IP 4x daily days 3 and 4, day 8 (controls 14083-15890)): 1217 ± 344 ng/mL
- Serum IgE ± SD (40.0 μg IP 4x daily days 3 and 4, day 9): 870 ± 83 ng/mL
- Serum IgE ± SD (40.0 μg IP 4x daily days 3 and 4, day 11): 1028 ± 302 ng/mL
- Mean IgE ± SD (40 μg IP 4x daily days 3 and 4, day -1 baseline before treatment): 1114 ± 324 ng/mL
- Serum IgE ± SD (40.0 μg IP 4x daily days 3 and 4, day -1 baseline before treatment): 929 ± 97 ng/mL
- inhibition of serum IgE synthesis (2-40 μg IP days 3 and 4): reduces IgE production in a dose dependent manner
- Mean IgE ± SD (Group D, unstimulated (PBS on day 0), 40 μg (text: 20 μg) IP days 3 and 4, day 8): 1026 ± 387 ng/mL
- Mean IgE ± SD (Group D, unstimulated (PBS on day 0), 40 μg (text: 20 μg) IP days 3 and 4, day -1 baseline before treatment): 1289 ± 10 ng/mL
- IgE inhibition, 3 vs 4 times a day (IP days 3 and 4): equally effective at inhibiting IgE production in a dose dependent manner whether administered 3 times a day or 4 times a day
- dosage at which maximum inhibition is obtained (IP days 3 and 4): 40.0 µg
- lowest dosage at which some inhibition is obtained (IP days 3 and 4): 1.0 µg
- IgE ± SD (Table 9, 20 μg IP days 3 and 4, day 8 (control 3539)): 1206 ± 119 ng/mL
- IgE ± SD (Table 9, 20 μg IP days 3 and 4, day -1 baseline before treatment): 1015 ± 70 ng/mL

SMILES: CCCCC(C)(O)C/C=C/[C@H]1[C@H](O)CC(=O)[C@@H]1CCC1CC1CCC(=O)OC (relative stereo) [(±) methyl 2-[2-[3R-3α-hydroxy-2β-(4-hydroxy-4-methyl-1E-octenyl)-5-oxo-1α-cyclopentyl]ethyl]cyclopropanepropanoate]
- de novo IgE synthesis (20 μg days 3 and 4, Example 23): inhibit de novo IgE synthesis
- IgE ± SD [1]: 3034 ± 878 ng/mL

SMILES: CCCCC(C)(O)C/C=C/[C@H]1[C@H](O)CC(=O)[C@@H]1CC1CC1CCCC(=O)OC (relative stereo) [(±) methyl 2-[2-[3R-3α-hydroxy-2β-(4-hydroxy-4-methyl-1E-octenyl)-5-oxo-1α-cyclopentyl]methyl]cyclopropanebutanoate]
- de novo IgE synthesis (20 μg days 3 and 4, Example 23): inhibit de novo IgE synthesis
- IgE ± SD [1]: 2750 ± 318 ng/mL

SMILES: CCCCC(C)(O)C/C=C/[C@H]1[C@H](O)CC(=O)[C@@H]1C/C=C\C=CCC(=O)OC (relative stereo) [(±) methyl 11α,16-dihydroxy-16-methyl-9-oxoprosta-3,5Z,13-trien-1-oate]
- de novo IgE synthesis (20 μg days 3 and 4, Example 25): inhibit de novo IgE synthesis
- IgE ± SD (Table 14, 20 μg days 3 and 4, day 8 (control 6071)): 1176 ± 137 ng/mL
